Target: LSD-1 enzyme (Homo sapiens (Human), UniProt O60341)
Test: LANCE LSD1/KDM1A demethylase assay (LSD1 histone demethylase biochemical assay)
Settings: 1 nM LSD-1 enzyme, 1 hour preincubation at 25° C., Biotin-labeled Histone H3 peptide substrate
Experimental: Example A: LSD1 Histone Demethylase Biochemical Assay
LANCE LSD1/KDM1A demethylase assay—10 μL of 1 nM LSD-1 enzyme (ENZO BML-SE544-0050) in the assay buffer (50 mM Tris, pH 7.5, 0.01% Tween-20, 25 mM NaCl, 5 mM DTT) were preincubated for 1 hour at 25° C. with 0.8 μL compound/DMSO dotted in black 384 well polystyrene plates. […] Reactions were stopped by addition of 10 μL 1×LANCE Detection Buffer (PerkinElmer CR97-100) supplemented with 1.5 nM Eu-anti-unmodified H3K4 Antibody (PerkinElmer TRF0404), and 225 nM LANCE Ultra Streptavidin (PerkinElmer TRF102) along with 0.9 mM Tranylcypromine-HCl (Millipore 616431). After stopping the reactions plates were incubated for 30 minutes and read on a PHERAstar FS plate reader (BMG Labtech).

Row | SMILES | IC50 [nM]
1 | CN1C(=O)COc2cc(-c3c(-c4ccc(C#N)cc4)nc(N4CCC(N(C)C)CC4)n4ccnc34)ccc21 [Example 51, 4-[5-[4-(dimethylamino)piperidin-1-yl]-8-(4-methyl-3-oxo-3,4-dihydro-2H-1,4-benzoxazin-7-yl)imidazo[1,2-c]pyrimidin-7-yl]benzonitrile] | ≤ 50
2 | CN(C)C1CCN(c2nc(-c3ccc(C#N)cc3)c(-c3ccc4c(c3)nc(C(F)F)n4C)c3nccn23)CC1 [Example 52, 4-{8-[2-(difluoromethyl)-1-methyl-1H-benzimidazol-5-yl]-5-[4-(dimethylamino)piperidin-1-yl]imidazo[1,2-c]pyrimidin-7-yl}benzonitrile] | ≤ 50
3 | COc1ncc(-c2c(-c3ccc(C#N)cc3)nc(N3CCC(N(C)C)CC3)n3ccnc23)cc1C [Example 53, 4-[5-[4-(dimethylamino)piperidin-1-yl]-8-(6-methoxy-5-methylpyridin-3-yl)imidazo[1,2-c]pyrimidin-7-yl]benzonitrile] | ≤ 50
4 | CN(C)C1CCN(c2nc(-c3ccc(C#N)cc3)c(-c3cc4oc(=O)n(C)c4cc3F)c3nccn23)CC1 [Example 54, 4-[5-[4-(dimethylamino)piperidin-1-yl]-8-(5-fluoro-3-methyl-2-oxo-2,3-dihydro-1,3-benzoxazol-6-yl)imidazo[1,2-c]pyrimidin-7-yl]benzonitrile] | ≤ 50
5 | CCN1CCC[C@@H](COc2nc(-c3ccc(C#N)cc3)c(-c3ccc4c(c3)oc(=O)n4C)c3nccn23)C1 [Example 55, 4-[5-{1[(3R)-1-ethylpiperidin-3-yl]methoxy}-8-(3-methyl-2-oxo-2,3-dihydro-1,3-benzoxazol-6-yl)imidazo[1,2-c]pyrimidin-7-yl]benzonitrile] | ≤ 50
6 | COc1ccc(-c2c(-c3ccc(C#N)cc3)nc(OC[C@@H]3CCCN(CCO)C3)n3ccnc23)cn1 [Example 56, 4-[5-{[(3R)-1-(2-hydroxyethyl)piperidin-3-yl]methoxy}-8-(6-methoxypyridin-3-yl)imidazo[1,2-c]pyrimidin-7-yl]benzonitrile] | ≤ 50
7 | COc1ncc(-c2c(-c3ccc(C#N)cc3)nc(OC[C@@H]3CCCN(CCO)C3)n3ccnc23)cc1F [Example 57, 4-(8-(5-fluoro-6-methoxypyridin-3-yl)-5-{[(3R)-1-(2-hydroxyethyl)piperidin-3-yl]methoxy}imidazo[1,2-c]pyrimidin-7-yl)benzonitrile] | ≤ 50
8 | CN(C)C1CCN(c2nc(-c3ccc(C#N)cc3)c(-c3cc(F)c4c(c3)oc(=O)n4C)c3nccn23)CC1 [Example 58, 4-[5-[4-(dimethylamino)piperidin-1-yl]-8-(4-fluoro-3-methyl-2-oxo-2,3-dihydro-1,3-benzoxazol-6-yl)imidazo[1,2-c]pyrimidin-7-yl]benzonitrile] | ≤ 50
9 | CN1CCC[C@@H](COc2nc(-c3ccc(C#N)cc3)c(-c3cc(F)c4c(c3)oc(=O)n4C)c3nccn23)C1 [Example 59, 4-(8-(4-fluoro-3-methyl-2-oxo-2,3-dihydro-1,3-benzoxazol-6-yl)-5-{[(3R)-1-methylpiperidin-3-yl]methoxy}imidazo[1,2-c]pyrimidin-7-yl)benzonitrile] | ≤ 50
10 | CN(C)C1CCN(c2nc(-c3ccc(C#N)cc3)c(-c3cnc4c(c3)oc(=O)n4C)c3nccn23)CC1 [Example 60, 4-[5-[4-(dimethylamino)piperidin-1-yl]-8-(3-methyl-2-oxo-2,3-dihydro[1,3]oxazolo[4,5-b]pyridin-6-yl)imidazo[1,2-c]pyrimidin-7-yl]benzonitrile] | ≤ 50
11 | CN1CCC[C@@H](COc2nc(-c3ccc(C#N)cc3)c(-c3cnc4c(c3)oc(=O)n4C)c3nccn23)C1 [Example 61, 4-(8-(3-methyl-2-oxo-2,3-dihydro[1,3]oxazolo[4,5-b]pyridin-6-yl)-5-{[(3R)-1-methylpiperidin-3-yl]methoxy}imidazo[1,2-c]pyrimidin-7-yl)benzonitrile] | 50 to 500
12 | CN1C(=O)Cc2cc(-c3c(-c4ccc(C#N)cc4)nc(N4CCC(N(C)C)CC4)n4ccnc34)ccc21 [Example 62, 4-[5-[4-(dimethylamino)piperidin-1-yl]-8-(1-methyl-2-oxo-2,3-dihydro-1H-indol-5-yl)imidazo[1,2-c]pyrimidin-7-yl]benzonitrile] | ≤ 50
13 | Cc1nc2cc(-c3c(-c4ccc(C#N)cc4)nc(N4CCC(N(C)C)CC4)n4ccnc34)ccc2n1C [Example 63, 4-[5-[4-(dimethylamino)piperidin-1-yl]-8-(1,2-dimethyl-1H-benzimidazol-5-yl)imidazo[1,2-c]pyrimidin-7-yl]benzonitrile] | ≤ 50
14 | CN1CCC[C@@H](COc2nc(-c3ccc(C#N)cc3)c(-c3ccc4c(c3)nc(C(F)F)n4C)c3nccn23)C1 [Example 64, 4-(8-[2-(difluoromethyl)-1-methyl-1H-benzimidazol-5-yl]-5-{[(3R)-1-methylpiperidin-3-yl]methoxy}imidazo[1,2-c]pyrimidin-7-yl)benzonitrile] | ≤ 50
15 | Cc1nc2cc(-c3c(-c4ccc(C#N)cc4)nc(OC[C@@H]4CCCN(C)C4)n4ccnc34)ccc2n1C [Example 65, 4-(8-(1,2-dimethyl-1H-benzimidazol-5-yl)-5-{[(3R)-1-methylpiperidin-3-yl]methoxy}imidazo[1,2-c]pyrimidin-7-yl)benzonitrile] | ≤ 50
16 | Cc1ncc(-c2c(-c3ccc(C#N)cc3)nc(N3CCC(N(C)C)CC3)n3ccnc23)cc1C#N [Example 66, 5-{7-(4-cyanophenyl)-5-[4-(dimethylamino)piperidin-1-yl]imidazo[1,2-c]pyrimidin-8-yl}-2-methylnicotinonitrile] | 50 to 500
17 | COC(=O)N(C)c1ccc(-c2c(-c3ccc(C#N)cc3)nc(N3CCC(N(C)C)CC3)n3ccnc23)cn1 [Example 67] | 50 to 500
18 | Cc1cc(-c2c(-c3ccc(C#N)cc3)nc(N3CCC(N(C)C)CC3)n3ccnc23)cnc1C [Example 68, 4-[5-[4-(dimethylamino)piperidin-1-yl]-8-(5,6-dimethylpyridin-3-yl)imidazo[1,2-c]pyrimidin-7-yl]benzonitrile] | ≤ 50
19 | COc1ncc(-c2c(-c3ccc(C#N)cc3)nc(OC[C@@H]3CCCN(C)C3)n3ccnc23)cc1C [Example 69, 4-(8-(6-methoxy-5-methylpyridin-3-yl)-5-{[(3R)-1-methylpiperidin-3-yl]methoxy}imidazo[1,2-c]pyrimidin-7-yl)benzonitrile] | ≤ 50
20 | Cc1ncc(-c2c(-c3ccc(C#N)cc3)nc(OC[C@@H]3CCCN(C)C3)n3ccnc23)cc1C#N [Example 70, 5-(7-(4-cyanophenyl)-5-{[(3R)-1-methylpiperidin-3-yl]methoxy}imidazo[1,2-c]pyrimidin-8-yl)-2-methylnicotinonitrile] | ≤ 50
21 | Cc1ccc(-c2c(-c3ccc(C#N)cc3)nc(OC[C@@H]3CCCN(C)C3)n3ccnc23)cc1CO [Example 71, 4-(8-[3-(hydroxymethyl)-4-methylphenyl]-5-{[(3R)-1-methylpiperidin-3-yl]methoxy}imidazo[1,2-c]pyrimidin-7-yl)benzonitrile] | ≤ 50
22 | Cc1ccc(-c2c(-c3ccc(C#N)cc3)nc(OC[C@@H]3CCCN(C)C3)n3ccnc23)c(CO)c1 [Example 72, 4-(8-[2-(hydroxymethyl)-4-methylphenyl]-5-{[(3R)-1-methylpiperidin-3-yl]methoxy}imidazo[1,2-c]pyrimidin-7-yl)benzonitrile] | ≤ 50
23 | Cc1ccc(-c2c(-c3ccc(C#N)cc3)nc(OC[C@@H]3CCCN(C)C3)n3ccnc23)cn1 [Example 73, 4-[5-{[(3R)-1-methylpiperidin-3-yl]methoxy}-8-(6-methylpyridin-3-yl)imidazo[1,2-c]pyrimidin-7-yl]benzonitrile] | 50 to 500
24 | Cc1ncc(-c2c(-c3ccc(C#N)cc3)nc(OC[C@@H]3CCCN(C)C3)n3ccnc23)cc1F [Example 74, 4-(8-(5-fluoro-6-methylpyridin-3-yl)-5-{[(3R)-1-methylpiperidin-3-yl]methoxy}imidazo[1,2-c]pyrimidin-7-yl)benzonitrile] | 50 to 500
25 | COC(=O)N(C)c1ccc(-c2c(-c3ccc(C#N)cc3)nc(OC[C@@H]3CCCN(C)C3)n3ccnc23)cc1F [Example 75] | 50 to 500
26 | CN1CCC[C@@H](COc2nc(-c3ccc(C#N)cc3)c(-c3ccc4c(c3)OC(C(=O)N(C)C)CO4)c3nccn23)C1 (stereo partly drawn) [Example 76, 7-(7-(4-cyanophcnyl)-5-{[(3R)-1-methylpiperidin-3-yl]methoxy}imidazo[1,2-c]pyrimidin-8-yl)-N,N-dimethyl-2,3-dihydro-1,4-benzodioxine-2-carboxamide] | ≤ 50
27 | CN1CCC[C@@H](COc2nc(-c3ccc(C#N)cc3)c(-c3cnc4c(c3)CCN4C)c3nccn23)C1 [Example 77, 4-(8-(1-mcthyl-2.3-dihydro-1H-pyrrolo[2,3-b]pyridin-5-yl)-5-{[(3R)-1-methylpiperidin-3-yl]methoxy}imidazo[1,2-c]pyrimidin-7-yl)benzonitrile] | ≤ 50
28 | CN1CCC[C@@H](COc2nc(-c3ccc(C#N)cc3)c(-c3cnc4c(c3)CCCN4C)c3nccn23)C1 [Example 78, 4-[5-{[(3R)-1-methylpiperidin-3-yl]methoxy}-8-(8-methyl-5,6,7,8-tetrahydro-1,8-naphthyridin-3-yl)imidazo[1,2-c]pyrimidin-7-yl]benzonitrile] | ≤ 50
29 | CN1CCC[C@@H](COc2nc(-c3ccc(C#N)cc3)c(-c3ccc4c(c3)N(C)C(=O)CC4)c3nccn23)C1 [Example 79, 4-(8-(1-methyl-2-oxo-1,2,3,4-tetrahydroquinolin-7-yl)-5-{[(3R)-1-methylpiperidin-3-yl]methoxy}imidazo[1,2-c]pyrimidin-7-yl)benzonitrile] | 50 to 500

From US9944647B2 (Incyte Corporation, priority 2015, dated 2018)
